For the assay, the system named is P388 leukemia ip, CD2F1 mice, survival T/C. Nature of the assay: NCI In Vivo Anticancer Drug Screen. Data for tumor model P388 Leukemia (intraperitoneal) in CD2F1 (CDF1) mice. As to conditions: endpoint: median survival time, higher = longer survival. In short, it runs like this: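 Mice carrying the transplanted tumor received test compound or vehicle. Survival was recorded in each group, and the value is the treated-group measurement divided by that of the vehicle-treated control group.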

[1] abbreviates: dose: 60.0 mg/kg/injection, schedule: Q01DX005 (ip), vehicle: Klucel (hydroxypropylcellulose) (HPC).
The mark [2] stands for this setting: dose: 120.0 mg/kg/injection, schedule: Q01DX005 (ip), vehicle: Klucel (hydroxypropylcellulose) (HPC).
Setting [3] is: dose: 50.0 mg/kg/injection, schedule: Q01DX009 (ip), vehicle: saline with Tween-80.
The mark [4] stands for this setting: dose: 100.0 mg/kg/injection, schedule: Q01DX009 (ip), vehicle: saline with Tween-80.
Setting [5] is: dose: 200.0 mg/kg/injection, schedule: Q01DX009 (ip), vehicle: saline with Tween-80.
The mark [6] stands for this setting: dose: 12.5 mg/kg/injection, schedule: Q01DX009 (ip), vehicle: distilled water + Tween-80.
The mark [7] stands for this setting: dose: 25.0 mg/kg/injection, schedule: Q01DX009 (ip), vehicle: distilled water + Tween-80.
Where [8] appears, read: dose: 50.0 mg/kg/injection, schedule: Q01DX009 (ip), vehicle: distilled water + Tween-80.
Setting [9] is: dose: 100.0 mg/kg/injection, schedule: Q01DX009 (ip), vehicle: distilled water + Tween-80.
Setting [10] is: dose: 100.0 mg/kg/injection, schedule: Q04DX003 (ip), vehicle: Klucel (hydroxypropylcellulose) (HPC).
Where [11] appears, read: dose: 200.0 mg/kg/injection, schedule: Q04DX003 (ip), vehicle: Klucel (hydroxypropylcellulose) (HPC).

The values below come from PubChem BioAssay AID330 (DTP/NCI, 2004).

Structures are written as SMILES. Values joined by “and” are separate entries in the source; they are usually repeats but may differ in a detail not shown here. Identical values can stand only once. Inconclusive results and toxic doses are left out.

Turning to `c1ccc(-c2cc3nccnc3[nH]2)cc1`, the T/C was 100 % of control (dose: 15.0 mg/kg/injection, schedule: Q01DX005 (ip), vehicle: Klucel (hydroxypropylcellulose) (HPC)); 92 % of control (dose: 30.0 mg/kg/injection, schedule: Q01DX005 (ip), vehicle: Klucel (hydroxypropylcellulose) (HPC)); 87 % of control and 89 % of control under setting [1]; 97 % of control under setting [2].
Regarding `CC(C)(C)c1cc(C(=O)O)c(S)c(C(=O)O)c1`, the T/C (dose: 50.0 mg/kg/injection, schedule: Q01DX009 (ip), vehicle: Klucel (hydroxypropylcellulose) (HPC)) is 104 % of control and 109 % of control; the T/C (dose: 100.0 mg/kg/injection, schedule: Q01DX009 (ip), vehicle: Klucel (hydroxypropylcellulose) (HPC)) is 102 % of control and 100 % of control; the T/C (dose: 200.0 mg/kg/injection, schedule: Q01DX009 (ip), vehicle: Klucel (hydroxypropylcellulose) (HPC)) is 93 % of control.
Turning to `ON=C1CCCCCCC1`, the T/C was 97 % of control (dose: 50.0 mg/kg/injection, schedule: Q01DX009 (ip), vehicle: suspension in saline); 104 % of control (dose: 100.0 mg/kg/injection, schedule: Q01DX009 (ip), vehicle: suspension in saline); 103 % of control (dose: 200.0 mg/kg/injection, schedule: Q01DX009 (ip), vehicle: suspension in saline); 98 % of control (dose: 400.0 mg/kg/injection, schedule: Q01DX009 (ip), vehicle: suspension in saline).
With `COc1ccc(C2ON=C(c3cc(C)cc(Br)c3O)C2[N+](=O)[O-])cc1` (stereo unspecified), the T/C reads like this: (dose: 100.0 mg/kg/injection, schedule: Q04DX002 (ip), vehicle: saline with Tween-80) 90 % of control; (dose: 200.0 mg/kg/injection, schedule: Q04DX002 (ip), vehicle: saline with Tween-80) 94 % of control; (dose: 400.0 mg/kg/injection, schedule: Q04DX002 (ip), vehicle: saline with Tween-80) 94 % of control.
As to `O=C1c2ccccc2C(=O)c2c3c(cc(NCCNCCO)c21)N(CCO)CCN3`, the T/C (dose: 6.25 mg/kg/injection, schedule: Q01DX009 (ip), vehicle: DMSO) was 104 % of control; the T/C (dose: 12.5 mg/kg/injection, schedule: Q01DX009 (ip), vehicle: DMSO) was 123 % of control; the T/C (dose: 25.0 mg/kg/injection, schedule: Q01DX009 (ip), vehicle: DMSO) was 155 % of control; the T/C (dose: 50.0 mg/kg/injection, schedule: Q01DX009 (ip), vehicle: DMSO) is 163 % of control; the T/C (dose: 100.0 mg/kg/injection, schedule: Q01DX009 (ip), vehicle: DMSO) is 101 % of control; the T/C (dose: 200.0 mg/kg/injection, schedule: Q01DX009 (ip), vehicle: DMSO) is 93 % of control.
As to `CCOC(=O)c1ccc(NC(Cc2ccccc2)=NC(C)(C)C)cc1`, the T/C by setting is: under setting [3], 98 % of control; under setting [4], 94 % of control; under setting [5], 88 % of control.
Turning to `O=C(O)CCCCC1CCSS1` (stereo unspecified), the T/C is 103 % of control (dose: 15.63 mg/kg/injection, schedule: Q01DX005 (ip), vehicle: Klucel (hydroxypropylcellulose) (HPC)); 103 % of control (dose: 31.25 mg/kg/injection, schedule: Q01DX005 (ip), vehicle: Klucel (hydroxypropylcellulose) (HPC)); 94 % of control (dose: 62.5 mg/kg/injection, schedule: Q01DX005 (ip), vehicle: Klucel (hydroxypropylcellulose) (HPC)); 97 % of control (dose: 125.0 mg/kg/injection, schedule: Q01DX005 (ip), vehicle: Klucel (hydroxypropylcellulose) (HPC)).
Take `CCOC(=O)CC1(O)Oc2cc3c(cc2C(c2cc(OC)c(OC)c(OC)c2)C1C(=O)OCC)OCO3` (stereo unspecified): the T/C runs as follows: under setting [1], 87 % of control; under setting [2], 89 % of control; (dose: 240.0 mg/kg/injection, schedule: Q01DX005 (ip), vehicle: Klucel (hydroxypropylcellulose) (HPC)) 88 % of control.
Take `O=NNc1ncc(Br)cc1Br`: the T/C (dose: 1.56 mg/kg/injection, schedule: Q01DX009 (ip), vehicle: water) was 100 % of control; the T/C (dose: 3.12 mg/kg/injection, schedule: Q01DX009 (ip), vehicle: water) is 99 % of control and 107 % of control; the T/C (dose: 6.25 mg/kg/injection, schedule: Q01DX009 (ip), vehicle: water) was 107 % of control and 110 % of control; the T/C (dose: 12.5 mg/kg/injection, schedule: Q01DX005 (ip), vehicle: water) was 119 % of control and 122 % of control; the T/C (dose: 12.5 mg/kg/injection, schedule: Q01DX009 (ip), vehicle: water) is 122 % of control; the T/C (dose: 25.0 mg/kg/injection, schedule: Q01DX009 (ip), vehicle: water) is 122 % of control. For the same molecule, the T/C by setting is: (dose: 50.0 mg/kg/injection, schedule: Q01DX005 (ip), vehicle: water) 154 % of control and 165 % of control; (dose: 100.0 mg/kg/injection, schedule: Q01DX005 (ip), vehicle: water) 175 % of control and 190 % of control and 206 % of control.
On to `CCN=NNc1ccc([N+](=O)[O-])cc1`, for which the T/C runs as follows: under setting [6], 95 % of control; under setting [7], 100 % of control; under setting [8], 105 % of control; under setting [9], 100 % of control; (dose: 200.0 mg/kg/injection, schedule: Q01DX009 (ip), vehicle: distilled water + Tween-80) 112 % of control.
As to `CC(C)NC(=O)OCc1cc(-c2ccccc2)n(C)c1-c1ccccc1`, the T/C (dose: 6.25 mg/kg/injection, schedule: Q01DX009 (ip), vehicle: distilled water + Tween-80) is 104 % of control and 98 % of control; the T/C under setting [6] was 107 % of control and 110 % of control and 113 % of control; the T/C under setting [7] was 117 % of control and 120 % of control and 122 % of control; the T/C under setting [8] was 105 % of control and 114 % of control and 116 % of control; the T/C under setting [9] is 92 % of control.
Turning to `Cc1nc2c(N)cc(Cl)cc2[nH]1`, the T/C by setting is: (dose: 50.0 mg/kg/injection, schedule: Q01DX005 (ip), vehicle: saline + Tween-80 + alcohol) 101 % of control; (dose: 50.0 mg/kg/injection, schedule: Q01DX005 (ip), vehicle: saline with Tween-80) 103 % of control; (dose: 100.0 mg/kg/injection, schedule: Q01DX005 (ip), vehicle: saline + Tween-80 + alcohol) 110 % of control; (dose: 100.0 mg/kg/injection, schedule: Q01DX005 (ip), vehicle: saline with Tween-80) 113 % of control; (dose: 200.0 mg/kg/injection, schedule: Q01DX005 (ip), vehicle: saline with Tween-80) 120 % of control.
Turning to `COc1cccc(-n2c(SC)nccc2=O)c1`, the T/C was 100 % of control under setting [10]; 101 % of control under setting [11]; 100 % of control (dose: 400.0 mg/kg/injection, schedule: Q04DX003 (ip), vehicle: Klucel (hydroxypropylcellulose) (HPC)).
As to `COc1ccc(OC)c(CC(C(C)=O)C(C)=O)c1`, the T/C was 100 % of control (dose: 25.0 mg/kg/injection, schedule: Q01DX009 (ip), vehicle: other); 105 % of control (dose: 50.0 mg/kg/injection, schedule: Q01DX009 (ip), vehicle: other); 106 % of control (dose: 100.0 mg/kg/injection, schedule: Q01DX009 (ip), vehicle: other); 108 % of control (dose: 200.0 mg/kg/injection, schedule: Q01DX009 (ip), vehicle: other); 116 % of control (dose: 400.0 mg/kg/injection, schedule: Q01DX009 (ip), vehicle: other).
As for `C[C@]12C=CC(=O)C=C1CC[C@H]1[C@@H]3C[C@@H](O)[C@](O)(C(=O)CO)[C@@]3(C)C[C@H](O)[C@@]12F`, the T/C was 100 % of control under setting [10] and 90 % of control under setting [11].
Turning to `CCCCN(C(=O)C(C)C)c1nc(C)co1`, the T/C under setting [3] was 112 % of control, the T/C under setting [4] is 118 % of control and the T/C under setting [5] is 96 % of control.
Take `C1CCC2OCCOCCOC3CCCCC3OCCOCCOC2C1` (stereo unspecified): the T/C runs as follows: (dose: 12.5 mg/kg/injection, schedule: Q01DX009 (ip), vehicle: Klucel (hydroxypropylcellulose) (HPC)) 95 % of control and 96 % of control; (dose: 25.0 mg/kg/injection, schedule: Q01DX009 (ip), vehicle: Klucel (hydroxypropylcellulose) (HPC)) 114 % of control and 91 % of control.
Take `c1ccc(CNc2cccc(NCc3ccccn3)n2)nc1`: the T/C (dose: 50.0 mg/kg/injection, schedule: Q01DX005 (ip), vehicle: Klucel (hydroxypropylcellulose) (HPC)) was 101 % of control; the T/C (dose: 100.0 mg/kg/injection, schedule: Q01DX005 (ip), vehicle: Klucel (hydroxypropylcellulose) (HPC)) is 95 % of control; the T/C (dose: 200.0 mg/kg/injection, schedule: Q01DX005 (ip), vehicle: Klucel (hydroxypropylcellulose) (HPC)) is 108 % of control.
